What was measured:
Type in all cases: biochemical
[1] = molecular target: human recombinant FGFR2 catalytic domain protein (amino acid 400-821) (Homo sapiens (Human), UniProt P21802); assay: FGFR2 activity inhibition test (HTRF kinase assay); settings: 50 μM ATP
Description: (§1) The effect of the compounds of the present invention on the in vitro activity of FGFR was assessed by measuring the phosphorylation level of the substrate in a kinase reaction using the HTRF kinase assay kit (Table 1).
(§2) If the IC50 value of a compound is very low, the initial concentration of the compound can be lowered.
(§3) The IC50 value of the compound was calculated from the 10 concentration points using the XLfit software in Excel by the following formula: Y=Bottom+(Top−Bottom)/(1+10^((log IC50−X)*slope factor))
(§4) Where Y is the percentage of inhibition, Bottom is the bottom platform value of the S-curve, Top is the top platform value of the S-curve, X is the logarithm of the concentration of the compound to be tested, and slope factor is the slope coefficient of the curve.

[2] = molecular target: human recombinant FGFR3 catalytic domain protein (amino acid 399-806) (Homo sapiens (Human), UniProt P22607); assay: FGFR3 activity inhibition test (HTRF kinase assay); settings: 90 μM ATP
Description: as §1, §2, §3, §4

[3] = molecular target: human recombinant FGFR1 catalytic domain protein (amino acid 308-731) (Homo sapiens (Human), UniProt P11362); assay: FGFR1 activity inhibition test (HTRF kinase assay); settings: 40 μM ATP
Description: as §1, §2, §3, §4

[4] = molecular target: human recombinant FGFR4 catalytic domain protein (amino acid 460-802) (Homo sapiens (Human), UniProt P22455); assay: FGFR4 activity inhibition test (HTRF kinase assay); settings: 90 μM ATP
Description: as §1, §2, §3, §4

Sequence of human recombinant FGFR3 catalytic domain protein (amino acid 399-806) (P22607 399-806): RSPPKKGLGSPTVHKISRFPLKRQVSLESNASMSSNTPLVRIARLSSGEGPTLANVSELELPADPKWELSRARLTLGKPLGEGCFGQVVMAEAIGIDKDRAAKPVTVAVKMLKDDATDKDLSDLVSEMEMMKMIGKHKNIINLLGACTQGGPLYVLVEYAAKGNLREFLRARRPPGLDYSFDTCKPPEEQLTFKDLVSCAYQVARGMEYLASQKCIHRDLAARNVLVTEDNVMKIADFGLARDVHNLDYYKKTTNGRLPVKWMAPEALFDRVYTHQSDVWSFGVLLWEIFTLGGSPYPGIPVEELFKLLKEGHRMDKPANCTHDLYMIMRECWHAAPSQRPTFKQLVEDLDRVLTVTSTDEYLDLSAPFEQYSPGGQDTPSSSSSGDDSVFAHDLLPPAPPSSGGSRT
Sequence of human recombinant FGFR4 catalytic domain protein (amino acid 460-802) (P22455 460-802): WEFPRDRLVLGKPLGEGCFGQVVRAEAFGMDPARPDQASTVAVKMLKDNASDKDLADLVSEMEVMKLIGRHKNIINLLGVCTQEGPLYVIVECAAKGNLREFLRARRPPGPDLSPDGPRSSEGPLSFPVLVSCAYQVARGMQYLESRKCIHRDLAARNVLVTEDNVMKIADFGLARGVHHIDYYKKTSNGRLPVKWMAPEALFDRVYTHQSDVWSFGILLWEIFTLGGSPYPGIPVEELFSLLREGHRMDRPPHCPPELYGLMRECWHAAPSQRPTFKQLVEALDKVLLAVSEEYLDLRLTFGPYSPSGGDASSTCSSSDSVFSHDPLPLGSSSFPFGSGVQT
Sequence of human recombinant FGFR1 catalytic domain protein (amino acid 308-731) (P11362 other isoform, or with tags, fused parts or gaps): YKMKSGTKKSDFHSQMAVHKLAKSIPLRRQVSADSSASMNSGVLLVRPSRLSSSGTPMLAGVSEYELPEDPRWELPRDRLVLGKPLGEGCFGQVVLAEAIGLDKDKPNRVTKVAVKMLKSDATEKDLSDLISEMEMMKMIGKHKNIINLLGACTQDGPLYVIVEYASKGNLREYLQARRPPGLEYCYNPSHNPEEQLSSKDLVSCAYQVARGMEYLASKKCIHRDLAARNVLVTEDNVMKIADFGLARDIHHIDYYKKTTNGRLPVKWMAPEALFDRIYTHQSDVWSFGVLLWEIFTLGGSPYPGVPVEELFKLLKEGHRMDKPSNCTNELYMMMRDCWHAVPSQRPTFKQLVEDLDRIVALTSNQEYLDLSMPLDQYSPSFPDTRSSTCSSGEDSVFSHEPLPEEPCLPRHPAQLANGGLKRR
Sequence of human recombinant FGFR2 catalytic domain protein (amino acid 400-821) (P21802 400-821): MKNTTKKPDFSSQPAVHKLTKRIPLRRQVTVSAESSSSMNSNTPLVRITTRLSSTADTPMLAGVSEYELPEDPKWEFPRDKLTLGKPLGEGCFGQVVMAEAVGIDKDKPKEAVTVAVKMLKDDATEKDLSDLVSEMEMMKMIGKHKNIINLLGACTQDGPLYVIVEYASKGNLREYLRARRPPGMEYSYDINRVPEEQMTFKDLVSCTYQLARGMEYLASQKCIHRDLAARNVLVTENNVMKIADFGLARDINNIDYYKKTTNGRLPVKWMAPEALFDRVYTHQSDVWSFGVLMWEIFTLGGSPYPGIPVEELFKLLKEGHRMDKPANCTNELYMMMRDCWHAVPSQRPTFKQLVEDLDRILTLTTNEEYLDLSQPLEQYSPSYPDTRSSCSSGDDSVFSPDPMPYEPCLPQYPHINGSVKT

Row | SMILES | IC50 [1] [nM] | IC50 [2] [nM] | IC50 [3] [nM] | IC50 [4] [nM]
2 | C=CC(=O)N1CCC(n2nc(C#Cc3cc(OC)cc(OC)c3)c(C(N)=O)c2N)CC1 [Compound 15, 1-(1-acryloylpiperidin-4-yl)-5-amino-3-((3,5-dimethoxyphenyl)ethynyl)-1H-pyrazole-4-carboxamide] | 10 to 100 | 10 to 100 | 100 to 1000 | 10 to 100
3 | C=CC(=O)N1CC(n2nc(C#Cc3cc(OC)cc(OC)c3)c(C(N)=O)c2N)C1 [Compound 14, 1-(1-acryloylazetidin-3-yl)-5-amino-3-((3,5-dimethoxyphenyl)ethynyl)-1H-pyrazole-4-carboxamide] | < 10 | < 10 | < 10 | < 10
4 | C=CC(=O)N1CC(n2cc(C(N)=O)c(C#Cc3cc(OC)cc(OC)c3)n2)C1 [Compound 3, 1-(1-acryloylazetidin-3-yl)-3-((3,5-dimethoxyphenyl)ethynyl)-1H-pyrazole-4-carboxamide] | 10 to 100 | 10 to 100 | 100 to 1000 | 10 to 100
7 | C=CC(=O)N1CC[C@H](n2nc(C#Cc3cc(OC)cc(OC)c3)c(C(N)=O)c2NC2CCN(C)CC2)C1 [Compound 34, (S)-1-(1-acryloylpyrrolidin-3-yl)-3-((3,5-dimethoxyphenyl)ethynyl)-5-((1-methylpiperidin-4-yl)amino)-1H-pyrazole-4-carboxamide] | < 10 | < 10 | 10 to 100 | –

Reference: patent US11572353B2, “Alkynyl-substituted heterocyclic compound, preparation method therefor and medical use thereof” (BEIJING INNOCARE PHARMA TECH CO., LTD., priority 2016, dated 2023)
